Laboratory results as given in patent US20030148929A1, “Nucleic acid carriers and pharmaceutical compositions for gene therapy” (Hisamitsu Pharmaceutical Co., Inc., priority 1998, published 2003).

Columns and labels:
Balb/c mice [1] = assay: Survival rate of mice singly administered with high doses of carrier; format: in vivo; conditions: pDBA, single
Procedure: The survival rate of mice was investigated in the manner described below when high doses of pDBA solution were directly administered to the mice.
pDBA was dissolved in physiological saline solution to prepare pDBA solutions having different concentrations. The pDBA solutions were administered to Balb/c mice intravenously through tail veins, and their symptoms were observed. pDBAs obtained in Synthetic Examples 1-7 (all listed in Table 2) were used. […]

HepG2 cells [2] = assay: Introduction of FITC-labeled oligonucleotide into HepG2 cells using pDBA, flow cytometer; format: cell-based; conditions: HepG2, 4 hours, FIG. 11 and 12
Procedure: An oligonucleotide labeled with FITC (20 mer, Pharmacia Corporation) was used to assess the efficiency of introduction into cells for the. complexes of the oligonucleotide with various pDBAs.
HepG2 cells were inoculated onto a 12-well petri dish at 1×10^5 cells/well and cultured for 24 hours. The FITC-labeled oligonucleotide was used, and pDBAs obtained in Synthetic Examples 3 and 5 were used as the nucleic acid carriers. Complexes were prepared from these three kinds (pDBAs and the FITC-labeled oligonucleotide) such that the ratios of oligonucleotide/pDBA were 1/1, 1/5, and 1/10 (w/w). The complex solutions were added to the HepG2 cells; and after culturing for 4 hours, the cells were washed with PBS(−) twice. After removal of PBS(−), the cells were separated from the dish using a cell dissociation solution (SIGMA-Aldrich Corporation) and the cell suspensions were subjected to measurement with a flow cytometer (FACS Calibur available from Becton Dickinson). The results are shown in FIG. 11 (oligonucleotide/pDBA=1/5(w/w)), where M1 represents the results from control experiment and M2 represents the results from the experiment using the FITC-labeled oligonucleotide).

HepG2 cells [3] = assay: Gene introduction into HepG2 cells with plasmid A/pDBA complexes, activity of the expressed luciferase; format: cell-based; conditions: plasmid/pDBA weight ratios 1/1 to 1/20 (w/w), FIG. 3
Procedure: A solution of a plasmid encoding the luciferase gene (about 5.25 kb: PicaGene control vector into which the luciferase gene was previously introduced (Toyo Ink Mfg. Co. Ltd.) that will be referred to as “plasmid A” hereinafter) and a solution of a nucleic acid carrier were prepared, respectively, at twice the desired concentration. Approximately 30 minutes prior to administration, the nucleic acid carrier solution was added dropwise to the plasmid solution with stirring to prepare a plasmid/(nucleic acid carrier) complex solution. DMEM medium (Sigma-Aldrich Corporation) was used as solvent. Specifically, a 25 μg/ml plasmid solution was prepared such that a plasmid/(nucleic acid carrier) complex solution having a plasmid concentration of 12.5 μg/ml would be used as an administration sample.
HepG2 cells were inoculated onto a 12-well multi-well plate (Coaster Inc.) at 1×10^5 cells/well one day prior to testing. […] The luciferase activity of the supernatant was measured on a Luciferase Assay System (Toyo Inc. Mfg. Co. Ltd.) using a luminometer (Lumit LB9501 available from Berthold Pty Ltd.). The protein concentration of the centrifuged supernatant was measured in a Protein Assay Kit (Bio-Rad Laboratories, Inc.) using a microplate reader (Rainbow Thermo available from Tecan U.S., Inc.). […]

Balb/c mice [4] = assay: Gene introduction into mice with plasmid A/pDBA complexes given intravenously through tail veins, luciferase activity in tissues; format: in vivo; conditions: for luciferase activity in the liver: plasmid/pDBA 1/7 (w/w)
Procedure: A solution of plasmid A and a solution of pDBA were prepared, respectively, at twice the desired concentration. Approximately 30 minutes prior to administration, the pDBA solution was added dropwise to the plasmid solution with stirring to prepare a plasmid/(nucleic acid carrier) complex solution. DMEM medium was used as solvent. Specifically, a 50 μg/ml plasmid solution was prepared such that a plasmid/(nucleic acid carrier) complex solution having a plasmid concentration of 25.0 μg/ml would be used as an administration sample.
Complex solutions were prepared from pDBA obtained in Example 3 and plasmid A such that the weight ratio of plasmid/pDBA was 1/7 (w/w) and were administered to Balb/c mice intravenously through tail veins. The dose of plasmid A per mouse was 12.5 μg/0.5 ml. Two days and twenty one days after administration the luciferase activity was measured in the lung, the liver and the spleen whereby gene introduction to the respective were determined.
Complex solutions were prepared from pDBA obtained in Synthetic Example 3 and plasmid A such that different weight ratios of plasmid to pDBA (plasmid/pDBA=1/0, 1/1, 1/5, 1/10, and 1/20) were realized; and they were administered to Balb/c mice intravenously through tail veins.
Two days after administration the luciferase activity found in the liver was measured whereby gene introduction to the respective mouse tissues were determined.
Complexes were prepared from five kinds of pDBA obtained in Synthetic Examples 1, 2, 3, 4, and 5 (all listed in Table 2) and plasmid A such that the weight ratio of plasmid/pDBA was 1/5 (w/w); and they were administered to mice intravenously through tail veins. Two days after administration the luciferase activity in the liver was measured.
Similarly to Example 4, Plasmid A/pDBA complex solutions that were prepared were administered to Balb/C mice (8-week old male) intravenously through tail veins. Gene expression in the liver after administration was assessed by measuring the luciferase activity. pDBA obtained in Synthetic Example 3 in Table 2 was used to prepare a complex solution such that plasmid/pDBA was equal to 1/5 (w/W), which was used in the administration described above.

[5] = system: guinea pigs (Hartley line); conditions: guinea pig, in vivo

For “Poly(DL-2,4-diaminobutyric acid) Acetate [Synthetic Example 1]”, which “Survival rate (survival number/case number)” value (Balb/c mice [1]; dose 1.6 mg/kg iv) is on record?
Its value is 3/3.

And the “Survival rate (survival number/case number)” value (Balb/c mice [1]; dose 3.1 mg/kg iv, listed as 12, 3.1 mg/kg)?
Its value is 3/3.

What about the “Survival rate (survival number/case number)” value (Balb/c mice [1]; dose 6.3 mg/kg iv, listed as 12, 6.3 mg/kg) of the same substance?
The value was 3/3.

And the “Survival rate (survival number/case number)” value (Balb/c mice [1]; dose 12.5 mg/kg iv)?
The value was 0/3.

What about the “cellular introduction / incorporation of the FITC-labeled oligonucleotide” value (HepG2 cells [2]) of the same substance?
The value was “little incorporation of oligonucleotide”.

“Poly(DL-2,4-diaminobutyric acid) Acetate [Synthetic Example 6]” was tested. Which “Survival rate (survival number/case number)” value (Balb/c mice [1]; dose 3.1 mg/kg iv, listed as 278, 3.1 mg/kg) did it give?
The value was 3/3.

And the “Survival rate (survival number/case number)” value (Balb/c mice [1]; dose 6.3 mg/kg iv, listed as 278, 6.3 mg/kg)?
Its value is 0/3.

For “Poly(DL-2,4-diaminobutyric acid) Acetate [Synthetic Example 4]”, which “Survival rate (survival number/case number)” value (Balb/c mice [1]; dose 3.1 mg/kg iv, listed as 62, 3.1 mg/kg) is on record?
Its value is 3/3.

What about the “Survival rate (survival number/case number)” value (Balb/c mice [1]; dose 6.3 mg/kg iv, listed as 62, 6.3 mg/kg) of the same substance?
The value was 2/3.

For “Poly(DL-2,4-diaminobutyric acid) Acetate [Synthetic Example 5]”, which “Survival rate (survival number/case number)” value (Balb/c mice [1]; dose 3.1 mg/kg iv, listed as 170, 3.1 mg/kg) is on record?
The value was 3/3.

What about the “Survival rate (survival number/case number)” value (Balb/c mice [1]; dose 6.3 mg/kg iv, listed as 170, 6.3 mg/kg) of the same substance?
Its value is 0/3.

“Poly(DL-2,4-diaminobutyric acid) Acetate [Synthetic Example 3]” was tested. Which “gene expression (activity of the expressed luciferase)” value (HepG2 cells [3]) did it give?
The value was “as the quantity of pDBA relative to plasmid increases, so does the gene expression”.

What about the “luciferase activity in the liver” value (Balb/c mice [4]; 21 days after iv administration, FIG. 5B) of the same substance?
Its value is “maintained even 21 days after administration”.

And the “duration of gene expression in the liver after a single administration” value (Balb/c mice [4]; Balb/C mice, iv tail vein, plasmid A, plasmid/pDBA 1/5 (w/W), FIG. 8)?
The value was at least 7 months.

What about the “gene expression (luciferase activity in the liver)” value (Balb/c mice [4]; two days after iv administration, plasmid/pDBA 1/0, 1/1, 1/5, 1/10, 1/20, FIG. 6) of the same substance?
The value was “As the quantity of pDBA relative to the plasmid increases, the gene expression has the tendency to increase”.

What about the “luciferase activity in the liver” value (Balb/c mice [4]; two days after iv administration, compared with plasmid only, FIG. 5A) of the same substance?
Its value is “markedly high luciferase activity”.

And the “Survival rate (survival number/case number)” value (Balb/c mice [1]; dose 3.1 mg/kg iv, listed as 49, 3.1 mg/kg)?
The value was 3/3.

What about the “Survival rate (survival number/case number)” value (Balb/c mice [1]; dose 6.3 mg/kg iv, listed as 49, 6.3 mg/kg) of the same substance?
The value was 3/3.

And the immunogenicity [5]?
The immunogenicity was “very low”.

Which results are given for “Poly(DL-2,4-diaminobutyric acid) Acetate [Synthetic Example 2]”?
Survival rate (survival number/case number) (Balb/c mice [1]; dose 3.1 mg/kg iv, listed as 26, 3.1 mg/kg): 3/3; Survival rate (survival number/case number) (Balb/c mice [1]; dose 6.3 mg/kg iv, listed as 26, 6.3 mg/kg): 3/3

Which results are given for “Poly(DL-2,4-diaminobutyric acid) Acetate [Synthetic Example 7]”?
Survival rate (survival number/case number) (Balb/c mice [1]; dose 3.1 mg/kg iv, listed as 348, 3.1 mg/kg): 1/3; Survival rate (survival number/case number) (Balb/c mice [1]; dose 6.3 mg/kg iv, listed as 348, 6.3 mg/kg): 0/3
